One experiment deals with Sphaerotheca fuliginea. As to the kind of experiment: Cucumber Powdery Mildew (CPM) protectant test in the greenhouse. The class given is in vivo. The settings on record: 300 g/ha, 100 is total disease control, 0 is no disease control. The essentials:
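Compounds in acetone-methanol-water (1:1:2) sprayed onto cucumber cv. "Bush Champion" (cotyledons plus one true leaf, 13 days old), dried 4 h. Inoculated 1 day later with 2×10^5 spores/ml; disease control (%) rated after 7 days in greenhouse.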

Another experiment deals with Pyricularia oryzae. In words: whole plant or invertebrate. The class given is in vivo. To be noted: protectant, 300 g/ha, greenhouse; 100 is total disease control, 0 is no disease control.
A further experiment deals with Southern Armyworm. In words: Protocol 1 Southern Armyworm (AW) foliar spray test. The class given is in vivo, Spodoptera eridania. The procedure:
(§1) A test solution containing 1250 parts per million (ppm) was prepared by dissolving the test compound in […] of a second solvent (acetone: water, 1:1) to give an acetone:water: methanol system of 50: 40:10.
(§2) The enclosed spraying chamber consisted of a single spray nozzle mounted on a boom moving at a fixed speed and distance over stationary targets. The vertical distance from the nozzle tip to the targets was adjusted to give rates varying from 150 g/ha to 600 g/ha
Individual fully expanded primary lima bean (Phaseolus limensis) leaves were placed bottom side up on moistened pieces of filter paper in Petri dishes. The leaves were sprayed with the test solutions and allowed to dry. The dishes were infested with 5 third instar larvae of the southern armyworm, covered with the lids, and held at 27° C. Armyworm control was rated by visual inspection after 48 hours. […] A rating of 0 indicated no dead larvae and normal feeding. Intermediate control was indicated by intermediate ratings.

The test system of another experiment is Mexican Bean Beetle. In words: Protocol 1 Mexican Bean Beetle (BB) foliar spray test. Type of experiment: in vivo, Epilachna verivestis. To be noted: control rated after 48 hours (100 = all larvae dead). The procedure: as §1, §2
Individual fully expanded primary lima bean (Phaseolus limensis) leaves were placed bottom side up on moistened pieces of filter paper in Petri dishes. The leaves were sprayed with the test solutions and allowed to dry. The dishes were infested with 5 third instar larvae of the mexican bean beetle, covered with the lids, and held at 27° C. Bean beetle control was rated by visual inspection after 48 hours. […] A rating of 0 indicated no dead larvae and normal feeding. Intermediate control was indicated by intermediate ratings.

For a further experiment, the system named is Two-Spotted Spider Mite. In words: Protocol 1 Two-Spotted Spider Mite (MTA) foliar spray test. To be noted: percentage of mites killed 1-day post-treatment. The class given is in vivo, Tetranychus urticae. The procedure: as §1, §2
A pad of moistened cotton was placed in a Petri dish. A 1-inch square section cut from a fully expanded primary lima bean (Phaseolus limensis) leaf was positioned bottom side up on the moist cotton. The leaf square was infested with approximately 50 adult female mites. The dishes were sprayed with the test solutions and held at 27° C. for mortality determination 1-day post-treatment. The percentage of mites killed were rated from 100% (all dead) to 0% (all alive).

The structures appear in SMILES notation.

`CC(=O)N1CC(=O)N(CC(F)(F)F)N=C1c1ccc(Cl)cc1` [Compound 40]: in the experiment on Sphaerotheca fuliginea, the “Cucumber Powdery Mildew (CPM) protectant fungicide data, percent control” value (“Cucumber Powdery Mildew … percent control” below) is on record as 0 percent control. Moreover, in the experiment on Pyricularia oryzae, the “Rice Blast (RB) protectant fungicide data, percent control” value (shortened to “Rice Blast … percent control”) was 90 percent control. In the experiment with Southern Armyworm (Protocol 1, DOSE 300), this compound gave an AW of 0. In addition, in the experiment with Mexican Bean Beetle (Protocol 1, DOSE 300), the BB was determined as 50. Also, the MTA in the experiment on Two-Spotted Spider Mite (Protocol 1, DOSE 300) turned out to be 90%.
The like results for `O=C1CNC(c2ccccc2)=NN1CC(F)(F)F` [Compound 33] were, in that order, 75 percent control, 80 percent control, 0, 100 and 75%.
As for `O=C1CNC(c2ccc(Cl)cc2)=NN1c1ccccc1` [Compound 29], in the experiment on Sphaerotheca fuliginea, the “Cucumber Powdery Mildew … percent control” value is recorded as 90 percent control. Also, the “Rice Blast … percent control” value in the experiment with Pyricularia oryzae was 90 percent control. Further, in the experiment on Southern Armyworm (Protocol 1, DOSE 300), the AW turned out to be 0. In the experiment on Mexican Bean Beetle (Protocol 1, DOSE 300), this compound yielded a BB of 0. Also, the MTA with Two-Spotted Spider Mite (Protocol 1, DOSE 300) turned out to be 90%.
On to `O=c1cnc(C2CCCCC2)nn1CC(F)(F)F` [Compound 251], for which the “Cucumber Powdery Mildew … percent control” value in the experiment on Sphaerotheca fuliginea is reported as 0 percent control. The “Rice Blast … percent control” value with Pyricularia oryzae came out at 75 percent control. In the experiment on Southern Armyworm (Protocol 1, DOSE 150), this compound displayed an AW of 0. The same compound had a BB with Mexican Bean Beetle (Protocol 1, DOSE 150) of 50. Moreover, the MTA with Two-Spotted Spider Mite (Protocol 1, DOSE 150) was determined as 75%.
Take `CCCCCn1nc(-c2ccc(Cl)cc2)ncc1=O` [Compound 234]: the “Cucumber Powdery Mildew … percent control” value with Sphaerotheca fuliginea was 80 percent control. Moreover, the “Rice Blast … percent control” value in the experiment with Pyricularia oryzae stood at 100 percent control. The compound also yielded an AW in the experiment with Southern Armyworm (Protocol 1, DOSE 300) of 0. Moreover, the BB with Mexican Bean Beetle (Protocol 1, DOSE 300) turned out to be 0. The compound also returned an MTA in the experiment with Two-Spotted Spider Mite (Protocol 1, DOSE 300) of 100%.

Values taken from patent publication US7494996B2 (priority 2000, dated 2009).
